Reference: patent US20100292216A1, “Methods and Compositions for the Treatment of Psychiatric Conditions” (ADAMAS PHARMACEUTICALS, INC., priority 2004, published 2010)
Entries after “also recorded” stand apart in the source; their conditions may differ. Read-outs that look alike come from different tables or passages of the source.

Tests used:
[1] = cited from earlier work; for Human PK T 1/2 / Tmax: parent drug
[2] = humans; cited from earlier work
[3] = IR administration; memantine 10 mg bid, duloxetine 60 mg qd; cited from earlier work
[4] = tested on: depression model (forced swim test (FST)); experiment: Dose ranging study in depression model (forced swim test); format: in vivo
From the text: An isobolic experiment ensues where the drugs are combined in fractions of their EDXXs to add up to ED100 (i.e., ED50:ED50, ED25:ED75, etc.). The plot of the data is constructed. The experiment points that lie below the straight line between the ED50 points on the graph are indicative of synergy, points on the line are indicative of additive effects, and points above the line are indicative of inhibitory effects. The point of maximum deviation from the isobolic line is the optimal ratio. […] Similar protocols may be applied in a wide variety of validated animal models.

Row | Structure (SMILES) | Human PK T 1/2 ([1]; humans) [h] | Tmax ([1]; humans) [h] | Main Dose Dependent Adverse Event [2] | Tmax [3] [h] | T½ [3] [h] | Human PK T 1/2 (hrs) for ODV ([1]; humans, ODV) [h] | Tmax (hrs) for ODV ([1]; humans, ODV) [h] | ED50 [4] | Dose Dependent Tox [2] | T½ ([1]; head of release table, Example 3)
1 | O=C1CC2(CCCC2)CC(=O)N1CCCCN1CCN(c2ncccn2)CC1 [BUSPAR/Buspirone, buspirone] | 7 | 1 | Drowsiness, dizziness | – | – | – | – | – | – | –
2 | CNCC[C@H](Oc1cccc2ccccc12)c1cccs1 [CYMBALTA/Duloxetine, duloxetine] | 12 | 6 | Dizziness | 6 | 12 | – | – | – | – | –
3 | COc1ccc(C(CN(C)C)C2(O)CCCCC2)cc1 (stereo not shown) [EFFEXOR/Venlafaxine, venlafaxine] | 5 | 2 | nausea, constipation,; also recorded: anorexia, vomiting,; also recorded: somnolence, | – | – | 11 | 3 | – | – | –
4 | CN(C)CCC[C@@]1(c2ccc(F)cc2)OCc2cc(C#N)ccc21 [LEXAPRO/Escitalopram, escitalopram] | – | 5 | Sexual dys | – | – | – | – | – | – | –
5 | CC12CC3CC(C)(C1)CC(N)(C3)C2 [Memantine, 1-amino-3,5-dimethyladamantane] | – | – | – | 3 | – | – | – | approximately 15 μM | required, hallucination | –
6 | CNCCCN1c2ccccc2CCc2ccccc21 [NORPRAMIN/Desipramine, desipramine] | 22 | 3 to 6 | Hypotension, urinary; also recorded: retention, QTC | – | – | – | – | – | – | –
7 | Fc1ccc([C@@H]2CCNC[C@H]2COc2ccc3c(c2)OCO3)cc1 [PAXIL/Paroxetine, paroxetine] | 21 | 5 | Sexual dys | – | – | – | – | – | – | T½ = 21 hrs
8 | CC(NC(C)(C)C)C(=O)c1cccc(Cl)c1 (stereo not shown) [WELLBUTRIN/Bupropion, bupropion] | 14 | 2 | Anorexia, constipation,; also recorded: seizures (Bold Warning) | – | – | – | – | – | – | –
